Here are results for 10 compounds from ChEMBL document CHEMBL1201862, “PubChem BioAssay data set” (2004).

Test [1] concerns the target T1, Carboxy-terminal domain RNA polymerase II polypeptide A small phosphatase 1 (Homo sapiens, UniProt Q9GZU7).
T1 sequence (Q9GZU7 whole entry): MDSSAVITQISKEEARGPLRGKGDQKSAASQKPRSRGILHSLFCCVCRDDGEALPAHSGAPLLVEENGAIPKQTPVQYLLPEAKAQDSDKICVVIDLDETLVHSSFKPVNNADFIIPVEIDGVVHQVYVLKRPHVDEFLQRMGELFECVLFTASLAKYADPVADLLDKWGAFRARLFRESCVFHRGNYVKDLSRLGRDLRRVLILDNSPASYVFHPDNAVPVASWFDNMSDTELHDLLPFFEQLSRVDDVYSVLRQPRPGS
Briefly: inhibitors of CTDSP1, concentration-response testing, biochemical assay, absorbance-based, actives from ultra-high-throughput screening (AID 540297). It counts as functional.

In test [2] the target is SWI/SNF-related matrix-associated actin-dependent regulator of chromatin subfamily A member 2 (Homo sapiens, UniProt P51531). Description: Luminescence-based cell-based high throughput dose response assay to identify activators of the function of SWI/SNF related, matrix associated, actin dependent regulator of chromatin, subfamily a, member 2 (SMARCA2, BRM). In kind it is functional.

Test [3] is described as follows: Counterscreen for activators of the function of SWI/SNF related, matrix associated, actin dependent regulator of chromatin, subfamily a, member 2 (SMARCA2, BRM): Luminescence-based cell-based high throughput dose response assay to identify non-selective compounds using the VP16 reporter assay. It counts as functional. A general note: A counterscreen serves to expose hits that act by an unwanted route or on another target.

For test [4], the target named is T2, DNA repair protein RAD52 homolog (Homo sapiens, UniProt P43351).
T2 sequence (P43351 whole entry): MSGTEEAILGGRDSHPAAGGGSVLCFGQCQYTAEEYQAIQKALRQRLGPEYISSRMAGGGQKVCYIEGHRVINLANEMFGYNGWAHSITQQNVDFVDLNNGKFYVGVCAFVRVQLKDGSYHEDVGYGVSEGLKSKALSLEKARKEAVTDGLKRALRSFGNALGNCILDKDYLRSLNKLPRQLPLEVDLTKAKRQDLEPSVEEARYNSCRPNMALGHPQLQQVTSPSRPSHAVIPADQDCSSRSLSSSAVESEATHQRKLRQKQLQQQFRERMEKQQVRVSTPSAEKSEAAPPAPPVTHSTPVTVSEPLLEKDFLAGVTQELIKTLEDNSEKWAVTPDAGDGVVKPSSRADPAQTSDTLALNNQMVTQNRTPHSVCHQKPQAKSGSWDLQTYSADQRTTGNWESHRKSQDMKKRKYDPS
It counts as functional, biochemical.

The next test concerns HeLa. Briefly: HeLa cell cytotoxicity, dose response, cytotoxicity control, ATP luminescence, cherry-pick samples (AID 687004). It counts as functional, cell-based. Particulars: Homo sapiens.
Test [5] in a line: HEK293T cytotoxicity, dose response, cytotoxicity control for miR-122 modulator project, cell-based, inhibitor set, cherry-pick, set 2 (AID 720697). It counts as functional.
Test [6] can be described thus: inhibitors of HIV Env-driven cell fusion, dose response, cherry-pick (AID 652057). It counts as functional, cell-based.
Test [7] in a line: CEM21 lymphoblast cell cytotoxicity, dose response, cytotoxicity control for viral fusion inhibitor project, CellTiter-Glo luminescence, cherry-picked (AID 652042).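 Further: potency for signal decrease meaning cytotoxicity.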 In kind it is functional, cell-based. For orientation: ATP-based viability assays read luminescence as a measure of living cells.
In the next test the target is Paired box protein Pax-8 (Homo sapiens, UniProt Q06710). Description: inhibitors of PAX8-driven TPO luciferase reporter, dose response, RMG-I cells, cherry-pick (AID 687027).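 Further: luciferase reporter driven by Pax8 target thyroperoxidase promoter measured by SteadyGlo luminescence.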 It counts as functional, cell-based. On the technique in general: Reporter assays use an easily measured gene product as a stand-in for the process of interest.
A short description of test [8]: NIH:OVCAR-3 ovarian cancer cell cytotoxicity, dose response, PAX8 inhibitor project, plate reader, dry powder samples (AID 743044). In kind it is functional, cell-based.
Test [9] in a line: IGROV1 ovarian cancer cell cytotoxicity, dose response, PAX8 inhibitor project, plate reader, dry powder samples (AID 743043). It counts as functional, cell-based. Conditions: IGROV-1.
The nature of test [10]: cytotoxicity in OVCAR8 ovarian cancer cells, dose response, PAX8 project, cell-based, plate reader, dry powder samples (AID 743197). It counts as functional. Conditions: OVCAR-8.
Test [11] in a line: non-specific cell cytotoxicity, dose response, cytotoxicity control for PAX8 inhibitor project, plate reader, dry powder samples (AID 743021). It counts as functional, cell-based.
Test [12] in a line: T. cruzi growth inhibition in host cells, dose response, cell-based, plate reader, dry powder, set 2 (AID 652275). It counts as functional.
Test [13] in a line: HEK293T cytotoxicity, dose response, cytotoxicity control for miR-122 modulator project, cell-based, activator set, cherry-pick (AID 720690).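 Further: HEK293T human cells scored for general mammalian cytotoxicity.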 It counts as functional.

The source made the active and inactive calls.

Sequence of Paired box protein Pax-8 (Q06710 whole entry): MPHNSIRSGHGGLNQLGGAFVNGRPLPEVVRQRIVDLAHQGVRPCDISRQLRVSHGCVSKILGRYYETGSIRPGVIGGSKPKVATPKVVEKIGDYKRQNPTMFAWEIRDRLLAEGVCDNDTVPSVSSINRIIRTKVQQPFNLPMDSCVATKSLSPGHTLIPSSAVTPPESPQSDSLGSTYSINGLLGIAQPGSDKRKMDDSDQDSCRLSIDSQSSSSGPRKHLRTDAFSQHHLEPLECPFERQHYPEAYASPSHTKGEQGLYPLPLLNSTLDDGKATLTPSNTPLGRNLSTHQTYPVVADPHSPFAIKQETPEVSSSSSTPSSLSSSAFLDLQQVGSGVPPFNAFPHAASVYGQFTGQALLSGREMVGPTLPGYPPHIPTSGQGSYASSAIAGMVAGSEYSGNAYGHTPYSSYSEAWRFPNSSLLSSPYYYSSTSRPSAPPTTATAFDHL
Sequence of SWI/SNF-related matrix-associated actin-dependent regulator of chromatin subfamily A member 2 (P51531 whole entry): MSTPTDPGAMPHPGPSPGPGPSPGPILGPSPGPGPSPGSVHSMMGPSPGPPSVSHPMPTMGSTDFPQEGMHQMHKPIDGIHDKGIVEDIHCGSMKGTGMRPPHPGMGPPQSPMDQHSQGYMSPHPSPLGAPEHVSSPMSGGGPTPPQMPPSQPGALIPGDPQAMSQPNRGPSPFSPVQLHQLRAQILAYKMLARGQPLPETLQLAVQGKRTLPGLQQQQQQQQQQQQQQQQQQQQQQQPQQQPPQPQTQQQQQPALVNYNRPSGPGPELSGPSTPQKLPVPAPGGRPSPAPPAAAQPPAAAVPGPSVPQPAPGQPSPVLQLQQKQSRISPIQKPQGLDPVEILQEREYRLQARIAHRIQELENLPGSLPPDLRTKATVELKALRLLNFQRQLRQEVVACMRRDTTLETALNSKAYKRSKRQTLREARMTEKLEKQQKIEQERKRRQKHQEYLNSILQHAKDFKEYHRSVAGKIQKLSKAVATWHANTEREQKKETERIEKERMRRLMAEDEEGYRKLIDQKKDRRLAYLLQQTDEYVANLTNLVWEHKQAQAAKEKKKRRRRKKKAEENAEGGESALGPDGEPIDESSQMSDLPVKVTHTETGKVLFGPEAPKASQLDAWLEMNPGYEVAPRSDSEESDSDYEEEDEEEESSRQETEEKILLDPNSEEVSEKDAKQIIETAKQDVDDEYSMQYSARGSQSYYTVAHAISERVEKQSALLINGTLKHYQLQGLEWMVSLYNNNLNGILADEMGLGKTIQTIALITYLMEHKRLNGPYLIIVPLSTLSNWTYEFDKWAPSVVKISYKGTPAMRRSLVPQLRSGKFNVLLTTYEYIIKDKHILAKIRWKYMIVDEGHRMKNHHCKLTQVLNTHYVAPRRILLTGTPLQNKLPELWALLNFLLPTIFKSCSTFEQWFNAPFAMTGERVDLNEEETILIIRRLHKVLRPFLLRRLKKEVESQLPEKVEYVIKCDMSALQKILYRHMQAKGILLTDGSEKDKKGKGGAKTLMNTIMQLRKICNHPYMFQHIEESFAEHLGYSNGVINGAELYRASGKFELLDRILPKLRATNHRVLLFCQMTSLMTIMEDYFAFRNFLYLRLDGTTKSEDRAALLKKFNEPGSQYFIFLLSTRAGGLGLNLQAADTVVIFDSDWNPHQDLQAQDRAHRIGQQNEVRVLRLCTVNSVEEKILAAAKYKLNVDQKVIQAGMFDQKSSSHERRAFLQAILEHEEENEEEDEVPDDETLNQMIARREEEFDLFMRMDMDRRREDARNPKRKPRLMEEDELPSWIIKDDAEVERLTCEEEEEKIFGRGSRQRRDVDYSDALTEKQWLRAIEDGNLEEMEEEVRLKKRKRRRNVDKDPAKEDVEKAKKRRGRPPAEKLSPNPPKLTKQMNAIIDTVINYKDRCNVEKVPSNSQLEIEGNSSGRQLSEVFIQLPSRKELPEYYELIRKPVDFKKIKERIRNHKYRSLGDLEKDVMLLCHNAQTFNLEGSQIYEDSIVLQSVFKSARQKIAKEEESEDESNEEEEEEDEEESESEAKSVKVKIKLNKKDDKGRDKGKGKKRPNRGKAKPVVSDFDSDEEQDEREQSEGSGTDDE

One may read the IC50 as the concentration needed to halve the response being measured. In general, EC50 refers to the concentration that produces a half-maximal response. For `O=C1NC2c3c(Cl)sc(Cl)c3C(=O)C2O1` (configuration not stated), in test [1], the IC50 was 3.75 µM (active). Also, the EC50 in test [2] and in [3] was > 91 µM (inactive) in each case.
A word on the AC50: it is the concentration at which the activity in the assay is half-maximal. For the compound `Cc1nc2cc(Oc3nc(NCCN(C)C)nc4ccsc34)ccc2s1`, the AC50 in test [4] was 21 µM (active).
On to `CCNC(=O)Nc1ccc2c(c1)C(=O)N(C)[C@H]1CC[C@H](CC(=O)Nc3ccccc3F)O[C@@H]1CO2`, for which the AC50 was 0.264 µM (active) in the test on HeLa and 2.11 µM (active) in [5].
In the case of `N#C[C@@H]1[C@H](c2ccc(-c3ccccc3F)cc2)[C@@H](CO)N1C(=O)c1ccccn1`, the AC50 in test [6] is 62.6 µM (active); in [7] it was 67 µM (active).
For `Cc1cccc(S(=O)(=O)N2CCCCN3[C@H](CO)[C@H](c4ccc(C#C[C@H](C)O)cc4)[C@H]3C2)c1`, the concentration at half-maximal activity (AC50) on Paired box protein Pax-8 is 7.18 µM (active); in [8], 30.4 µM (active); in test [9] it was 17.6 µM (active); in test [10], > 70 µM (inactive).
Regarding `C[C@@H]1CCCCO[C@H](CN(C)Cc2ccc(Cl)c(Cl)c2)[C@@H](C)CN([C@@H](C)CO)C(=O)c2cc(NC(=O)c3ccccc3)ccc2O1`, the AC50 at Paired box protein Pax-8 is 8.87 µM (active); in test [8] it was 43.1 µM (active); in [9], 47.5 µM (active); in test [11] it was 52.7 µM (active); in test [10], 60 µM (active).
As for `CC(C)N1CC2(CN(Cc3ccc(Cl)cc3)C2)Oc2c(NC(=O)c3ccncc3)cccc2C1=O`, the AC50 in test [12] is 0.136 µM (active).
On to `COCC(=O)Nc1ccc2c(c1)C(=O)N(C)[C@@H]1CC[C@H](CC(=O)N3CCc4ccccc4C3)O[C@H]1CO2`, for which the values for the AC50 in [5] and in [13] were 9.29 µM (active) and 37 µM (active), respectively.
As to `CC(C)N1C(=O)c2cccc(NC(=O)c3ccncc3)c2O[C@H](CN(C)Cc2ccc(Cl)cc2)[C@H]1C`, the AC50 in [12] was 0.00096 µM (active).
For `CC(C)(C)[S+]([O-])N1Cc2cc(C(=O)NCc3ccc4c(c3)OCO4)nc(-c3cccc(-c4cccc(F)c4)c3)c2[C@H]1CCO` (some centres not stated), the AC50 in test [12] is 0.394 µM (active).
